From patent US11384060B2, “Amide compounds and use thereof” (ALPHALA CO., LTD., priority 2017, dated 2022)

What was measured:
glucagon receptor (GCGR) = target: T1, glucagon receptor (GCGR) (Homo sapiens, UniProt P47871); experiment: I125-glucagon binding assay (competition, GCGR membrane fractions)
T1 construct: expressed in transfected cells; host or cells: CHO-K1 cells overexpressing GCGR (membrane fractions)
Outline: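 Membranes from CHO-K1 cells overexpressing GCGR, 7.5 μg/well in 50 mM Tris pH 7.4 with 0.5% BSA, were preincubated 5 min with serially diluted compounds, then given 0.0625 nM final I^125-glucagon for 30 min at 25° C. Bound label was filtered on PEI-coated GF/B and counted; IC50 by non-linear regression.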

[1] = target: T2, glucagon receptor (GCGR) overexpressed CHO-K1 cells or human primary hepatocytes (Homo sapiens, UniProt P47871); experiment: Glucagon cAMP inhibition assay (Cisbio cAMP Dynamic 2 HTRF); format: cell-based
T2 construct: expressed in transfected cells; host or cells: GCGR overexpressed CHO-K1 cells or human primary hepatocytes (endogenous receptor)
T2 sequence (P47871 26-477): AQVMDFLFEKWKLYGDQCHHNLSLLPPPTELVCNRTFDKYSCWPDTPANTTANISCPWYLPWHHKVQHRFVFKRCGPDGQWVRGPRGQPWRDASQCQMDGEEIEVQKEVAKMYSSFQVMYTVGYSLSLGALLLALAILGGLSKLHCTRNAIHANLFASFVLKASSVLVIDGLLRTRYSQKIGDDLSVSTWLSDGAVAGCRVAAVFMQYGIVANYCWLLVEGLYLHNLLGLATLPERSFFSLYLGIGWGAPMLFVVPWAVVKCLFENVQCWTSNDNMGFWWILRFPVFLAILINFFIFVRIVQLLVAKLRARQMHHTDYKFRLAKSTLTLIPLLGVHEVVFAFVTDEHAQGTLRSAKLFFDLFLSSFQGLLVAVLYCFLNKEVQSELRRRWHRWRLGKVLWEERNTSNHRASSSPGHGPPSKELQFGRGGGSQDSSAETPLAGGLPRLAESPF
Outline: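 GCGR-overexpressing CHO-K1 cells or human primary hepatocytes in HBSS with 0.1% BSA and 800 nM IBMX, pre-incubated 30 min with serially diluted compounds (1% DMSO final), then stimulated 30 min at room temperature with glucagon at its EC50. cAMP measured by HTRF after 60 min lysis; IC50 by non-linear regression.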

T1 sequence (P47871 26-477): as above

Structure (SMILES)	IC50 (glucagon receptor (GCGR))	IC50 cAMP [1]
O=C(O)CCNC(=O)c1ccc(N[C@H](COc2ccc(-c3cc4ccccc4o3)cn2)c2ccccc2)cc1 [Compound 15-5, (S)-3-(4-((2-((5-(benzofuran-2-yl)pyridin-2-yl)oxy)-1-phenylethyl)amino)benzamido)propanoic Acid]	706 nM	2067 nM
CC(C)(C)c1ccc(-c2ccc(OC[C@@H](Nc3ccc(C(=O)NC[C@@H](O)C(=O)O)cc3)c3ccccc3)nc2)cc1 [Compound 15-6, (R)-3-(4-(((S)-2-((5-(4-(tert-butyl)phenyl)pyridin-2-yl)oxy)-1-phenylethyl)amino)benzamido)-2-hydroxypropanoic Acid]	172 nM	>30000 nM
CC(C)C[C@@H](COc1ccc(-c2ccc(C(F)(F)F)cc2Cl)cn1)Nc1ccc(C(=O)NCCC(=O)O)cc1 [Compound 15-10, (S)-3-(4-((1-((5-(2-chloro-4-(trifluoromethyl)phenyl)pyridin-2-yl)oxy)-4-methylpentan-2-yl)amino)benzamido)propanoic Acid]	80 nM	198.4 nM
CC[C@H](C)[C@@H](COc1ccc(-c2cc3ccccc3o2)cn1)Nc1ccc(C(=O)NCCC(=O)O)cc1 [Compound 15-15, 3-(4-(((2S,3S)-1-((5-(benzofuran-2-yl)pyridin-2-yl)oxy)-3-methylpentan-2-yl)amino)benzamido)propanoic Acid]	207 nM	32.73 nM
CC(C)C[C@@H](COc1ccc(-c2ccc(C(F)(F)F)cc2F)cn1)Nc1ccc(C(=O)NCCC(=O)O)cc1 [Compound 15-16, (S)-3-(4-((1-((5-(2-fluoro-4-(trifluoromethyl)phenyl)pyridin-2-yl)oxy)-4-methylpentan-2-yl)amino)benzamido)propanoic Acid]	669 nM	999 nM
CC(C)[C@@H](COc1ccc(-c2ccc(Cl)cc2Cl)cn1)Nc1ccc(C(=O)NCCC(=O)O)cc1 [Compound 15-17, (S)-3-(4-((1-((5-(2,4-dichlorophenyl)pyridin-2-yl)oxy)-3-methylbutan-2-yl)amino)benzamido)propanoic Acid]	216 nM	196 nM
CC(C)C[C@@H](COc1ccc(-c2ccc(C(F)(F)F)cc2Cl)cn1)Nc1ccc(C(=O)NCCS(=O)(=O)O)cc1 [Compound 15-18]	1310 nM	>30000 nM
CC(C)C[C@@H](COc1ccc(-c2ccc(C(F)(F)F)nn2)cn1)Nc1ccc(C(=O)NCCC(=O)O)cc1 [Compound 15-19, (S)-3-(4-((4-methyl-1-((5-(6-(trifluoromethyl)pyridazin-3-yl)pyridin-2-yl)oxy)pentan-2-yl)amino)benzamido)propanoic Acid]	2990 nM	>30000 nM
CC[C@H](C)[C@@H](COc1ccc(-c2ccc(F)cc2F)cn1)Nc1ccc(C(=O)NCCC(=O)O)cc1 [Compound 15-20, 3-(4-(((2S,3S)-1-((5-(2,4-difluorophenyl)pyridin-2-yl)oxy)-3-methylpentan-2-yl)amino)benzamido)propanoic Acid]	382 nM	1255 nM
CC[C@H](C)[C@@H](COc1ccc(-c2ccc(F)cc2F)cn1)Nc1ccc(C(=O)NCCS(=O)(=O)O)cc1 [Compound 15-21, 2-(4-(((2S,3S)-1-((5-(2,4-difluorophenyl)pyridin-2-yl)oxy)-3-methylpentan-2-yl)amino)benzamido)ethane-1-sulfonic Acid]	5280 nM	>30000 nM
CCCC[C@@H](COc1ccc(-c2cc3ccccc3o2)cn1)Nc1ccc(C(=O)NCCC(=O)O)cc1 [Compound 15-22, (S)-3-(4-((1-((5-(benzofuran-2-yl)pyridin-2-yl)oxy)hexan-2-yl)amino)benzamido)propanoic Acid]	89 nM	168 nM
CCCC[C@@H](COc1ccc(-c2cc3ccccc3o2)cn1)Nc1ccc(C(=O)NCCS(=O)(=O)O)cc1 [Compound 15-23, (S)-2-(4-((1-((5-(benzofuran-2-yl)pyridin-2-yl)oxy)hexan-2-yl)amino)benzamido) ethane-1-sulfonic Acid]	453 nM	>30000 nM
CCCC[C@@H](COc1ccc(-c2ccc(Cl)cc2Cl)cn1)Nc1ccc(C(=O)NCCC(=O)O)cc1 [Compound 15-24, (S)-3-(4-((1-((5-(2,4-dichlorophenyl)pyridin-2-yl)oxy)hexan-2-yl)amino)benzamido)propanoic Acid]	301 nM	293.9 nM
CCCC[C@@H](COc1ccc(-c2ccc(C(F)(F)F)cc2Cl)cn1)Nc1ccc(C(=O)NCCC(=O)O)cc1 [Compound 15-25, (S)-3-(4-((1-((5-(2-chlor-4-(trifluoromethyl)phenyl)pyridin-2-yl)oxy)hexan-2-yl)amino)benzamido)propanoic Acid]	218 nM	245 nM

Next, values leading:

IC50 (glucagon receptor (GCGR))	IC50 cAMP [1]	Structure (SMILES)
753 nM	258.8 nM	CC(C)[C@@H](COc1ccc(-c2ccc(C(F)(F)F)cc2)cn1)Nc1ccc(C(=O)NCCC(=O)O)cc1 [Compound 15-7, (S)-3-(4-((3-methyl-1-((5-(4-(trifluoromethyl)phenyl)pyridin-2-yl)oxy)butan-2-yl)amino)benzamido)propanoic Acid]
3300 nM	>30000 nM	CC(C)[C@@H](COc1ccc(-c2ccc(C(F)(F)F)cc2)cn1)Nc1ccc(C(=O)NC[C@@H](O)C(=O)O)cc1 [Compound 15-8, (R)-2-hydroxy-3-(4-(((S)-3-methyl-1-((5-(4-(trifluoromethyl)phenyl)pyridin-2-yl)oxy)butan-2-yl)amino)benzamido)propanoic Acid]
330 nM	81.5 nM	CC(C)[C@@H](COc1ccc(-c2ccc(C(F)(F)F)cc2Cl)cn1)Nc1ccc(C(=O)NCCC(=O)O)cc1 [Compound 15-9, (S)-3-(4-((1-((5-(2-chloro-4-(trifluoromethyl)phenyl)pyridin-2-yl)oxy)-3-methylbutan-2-yl)amino)benzamido)propanoic Acid]
210 nM	284.7 nM	CC(C)C[C@@H](COc1ccc(-c2ccc(C(F)(F)F)cc2)cn1)Nc1ccc(C(=O)NCCC(=O)O)cc1 [Compound 15-11, (S)-3-(4-((4-methyl-1-((5-(4-(trifluoromethyl)phenyl)pyridin-2-yl)oxy)pentan-2-yl)amino)benzamido)propanoic Acid]
376 nM	294 nM	CC[C@H](C)[C@@H](COc1ccc(-c2ccc(C(F)(F)F)cc2)cn1)Nc1ccc(C(=O)NCCC(=O)O)cc1 [Compound 15-12, 3-(4-(((2S,3S)-3-methyl-1-((5-(4-(trifluoromethyl)phenyl)pyridin-2-yl)oxy)pentan-2-yl)amino)benzamido)propanoic Acid]
98 nM	123 nM	CC[C@H](C)[C@@H](COc1ccc(-c2ccc(C(F)(F)F)cc2Cl)cn1)Nc1ccc(C(=O)NCCC(=O)O)cc1 [Compound 15-13, 3-(4-(((2S,3S)-1-((5-(2-chloro-4-(trifluoromethyl)phenyl)pyridin-2-yl)oxy)-3-methylpentan-2-yl)amino)benzamido)propanoic Acid]
379 nM	280.6 nM	CC[C@H](C)[C@@H](COc1ccc(-c2ccc(C(F)(F)F)cc2F)cn1)Nc1ccc(C(=O)NCCC(=O)O)cc1 [Compound 15-14, 3-(4-(((2S,3S)-1-((5-(2-fluoro-4-(trifluoromethyl)phenyl)pyridin-2-yl)oxy)-3-methylpentan-2-yl)amino)benzamido)propanoic Acid]
